From a melting point compilation (Tetko et al.)

| melting point | SMILES |
| --- | --- |
| 151 to 152 °C | O=S1(=O)Cc2ccccc2C1 |
| 191 °C | Ic1ncc[nH]1 |
| 111 °C | O=C(CBr)c1cc(C(=O)CBr)cc(C(=O)CBr)c1 |
| 150 °C | CCOc1cc(OCC)c(C(=O)CCC(=O)O)cc1OCC |
| 99 °C | OC1(C#Cc2ccccc2)Cc2ccccc21 (stereo unspecified) |
| 56 to 57 °C | Cc1cc(C=O)nn1C |
| 65.5 °C | CC(C)OC(=O)C1(S(=O)(=O)c2ccc([N+](=O)[O-])cc2)CCC1 |
| 212 °C | CC1CCC(C)(C(=O)N(C(=O)C2(C)CCC(C)C2(C)C)c2ccccc2)C1(C)C (stereo unspecified) |
| 238 to 239 °C | Cn1c(SCC(=O)O)nnc1-c1ccc2ncccc2c1 |
| 139 to 140 °C | C[C@]12CCC(=O)C[C@H]1CC[C@@H]1[C@@H]2CC[C@]2(C)CCC[C@@]12O |
| 167 to 170 °C | Clc1cccc2c(C#Cc3ccccc3)c3cccc(Cl)c3c(C#Cc3ccccc3)c12 |
| 120 to 126 °C | N#Cc1cc(Cl)cc(Cl)c1N |
| 161 °C | O=C(C1=NOC2C(=O)N(c3ccccc3)C(=O)C12)c1ccccc1 (stereo unspecified) |
| -66.9 °C | CC1CCCC(C)C1C (stereo unspecified) |
| 57 °C | N#Cc1cc(F)cc(Cl)c1 |
| 96 °C | O=Cc1cc(Cl)cc(Cl)c1O |
| 103 °C | N#Cc1cc(F)ccc1[N+](=O)[O-] |
| 130 to 133 °C | Cn1c(S)nnc1Cc1ccsc1 |
| 98 °C | Nc1cc(Cl)ccc1S |
| 5 °C | CC1CCNCC1 |
| 150 °C | Nc1ccc(C(O)(C(F)(F)F)C(F)(F)F)cc1 |
| 143 to 147 °C | CC(=O)c1cc(O)cc(O)c1 |
| 198 °C | COC(=O)C=CC(C)=CC=CC(C)=CC=CC=C(C)C=CC=C(C)C=CC(=O)O |
| 72 °C | O=COc1ccc([N+](=O)[O-])cc1 |

| melting point | SMILES |
| --- | --- |
| -102 °C | CCCC(C)CC(C)O (stereo unspecified) |
| 35 °C | CCOc1cccc(-c2ccccc2)c1 |
| 94 to 96 °C | OC(C1CCCCC1)(C1CCCCC1)C1CCCCC1 |
| 152 °C | O=Cc1ccc2nccn2c1 |
| 109 to 114 °C | COc1ccc(C(=O)c2cccc(Cl)c2)cc1[N+](=O)[O-] |
| 111 °C | CC(C)(C)OC(=O)N[C@@H](CC(=O)OCc1ccccc1)C(=O)O |
| 285 °C | Cn1c(=O)c(C2=NNC(=O)C2=Cc2c(O)ccc3ccccc23)c(O)c2ccccc21 |
| -95 °C | C=C[Si](Cl)(Cl)Cl |
| 132 °C | CC(=O)C(=NNc1ccc(Br)cc1)C(C)=O |
| 109 to 111 °C | CC(C)(C)OC(=O)N1CCN(c2ccc(CO)cc2)CC1 |
| 27 °C | Cc1cccc(Cl)c1I |
| 18 °C | O=C(O)CCCCCl |
| 130 °C | O=C1c2ccccc2CC2CCc3ccccc3N12 (stereo unspecified) |
| -51 °C | CC1Cc2ccccc2N1 (stereo unspecified) |
| 261 to 263 °C | Cn1c(CN)nc2ccccc21 |
| 115 °C | COC(=O)c1ccc(CC(C#N)(Cc2ccc(C(=O)OC)cc2)c2ccc(CC(C)C)cc2)cc1 |
| 130 °C | CC(C)(C)OC(=O)N[C@H](C(=O)O)c1ccc(F)cc1 |
| -82 °C | Cc1ccc(C(C)C)c(C)c1 |
| 117 °C | CC12CCC=C1C1CCC3=CC(=O)CCC3(C)C1CC2 (stereo unspecified) |
| 129 °C | CC1=NN(c2ccccc2)C(=O)C1 |
| 98 °C | O=CC(=O)O |
| 166 °C | O=C(O)C=CCCCCCCCCC(=O)O |
| 289 °C | COc1cc(O)c2c(=O)cc(-c3ccc(O)cc3)oc2c1 |
| 223 to 225 °C | NNC(=O)CCc1ccc(O)cc1 |

| melting point | SMILES |
| --- | --- |
| 18.5 °C | CCCCCCCCCCCCCCC(=O)OC |
| 73 to 75 °C | Cc1cccc(C(=O)CC#N)c1 |
| 97 °C | S=C=Nc1ccc(N=Nc2ccccc2)cc1 |
| 193 to 195 °C | CC(C)(C)c1ccc(-c2nn[nH]n2)cc1 |
| 56 °C | CCOC(=O)C#Cc1cccc(C#CC(=O)OCC)c1 |
| 131 °C | O=C(c1ccccc1)C(c1ccccc1)c1cc(Cl)c([N+](=O)[O-])cc1[N+](=O)[O-] (stereo unspecified) |
| 120 °C | Cc1cccnc1C(N)=S |
| 93 °C | Cc1ccc2nc(C)c(C)nc2c1 |
| 145 °C | COc1ccc(N/N=C(/C#N)c2nc(-c3ccc(C)cc3)cs2)cc1 |
| 62 to 65 °C | CCc1[nH]c2ccccc2c1C |
| 8 °C | CCOC(=O)CCC(=O)O |
| 160 to 161 °C | O=C(O)/C(=C/c1cccc2ccccc12)c1ccccc1 |
| 210 to 213 °C | CC(c1ccccc1)N1CC(C(=O)O)CC1=O (stereo unspecified) |
| 21 °C | O=C(O)C1CCCO1 (stereo unspecified) |
| 210 to 214 °C | O=C(O)c1csc(-c2ccc3c(c2)CCO3)n1 |
| 227 °C | CC1=NNC(=N)Nc2c1c(=O)n(-c1ccccc1)c1ccccc21 |
| 60 °C | CSC(SC)=C(C#N)C(=O)c1cccc(C(F)(F)F)c1 |
| 31 °C | O=C(O)CCCC1CCCCC1 |
| 45 °C | CC=NO |
| 190 °C | OCC(O)C(O)C(O)C(O)CO (stereo unspecified) |
| 77 to 77.5 °C | Brc1ccc(Oc2c(Br)cccc2Br)cc1 |
| < 25 °C | FC(F)(F)COCC(F)(F)F |
| 52 °C | O=[N+]([O-])c1ccnc(Cl)c1 |
| 28 °C | CCCCCCCCCCCCOc1ccc(C=O)cc1 |

| melting point | SMILES |
| --- | --- |
| -18.5 °C | CCOC(=O)CCCCCCCC(=O)OCC |
| 104 to 105 °C | O=[N+]([O-])c1cccnc1Oc1cncc(Cl)c1 |
| 260 to 262 °C | CN(C)c1ccc(C=Nc2n[nH]c(N=Cc3ccc(N(C)C)cc3)c2Cc2ccc(Cl)cc2)cc1 |
| 300 °C | O=S1(=O)OC2(c3ccccc31)c1ccc(O)c(O)c1Oc1c2ccc(O)c1O |
| 162 °C | CCOC(=O)N/C=C1/C(=O)C2(C)CCC1C2(C)C (stereo unspecified) |
| 140 °C | Oc1cccc(CN2CCCCC2)c1 |
| 116 to 122 °C | NC1CCC(c2ccccc2)CC1CO (stereo unspecified) |
| 166 to 168 °C | O=c1cc[nH]c2c1cnn2-c1ccccc1 |
| 217 °C | NCC(O)c1ccc(O)c(O)c1 (stereo unspecified) |
| 352 °C | O=C(Nc1ccc(C=Cc2ccc(NC(=O)c3ccccc3)cc2)cc1)c1ccccc1 |
| 335 to 337 °C | Cc1cc(C)c2c(=O)n(-c3ccc(Br)cc3)c(S)nc2n1 |
| 152 °C | O=C(O)c1c(F)ccc(F)c1O |
| 276 to 278 °C | N#Cc1nc[nH]c1C(N)=O |
| 284 °C | CC1CCC2(C(=O)O)CCC3(C)C(=CCC4C5(C)CCC(O)C(C)(C)C5CCC43C)C2C1C (stereo unspecified) |
| 164 °C | COc1ccc2c(c1)c1c3n2CCN(C)C3=NCC1 |
| 155 to 156 °C | Cc1nc(N)ccc1C#N |
| 40 °C | N#CCc1ccc(Cl)c(Cl)c1 |
| 133 to 134 °C | CSC(S)=Nc1ccc(Br)cc1 |
| 38 °C | COC(=O)C1CC(=O)CN1C(=O)OC(C)(C)C (stereo unspecified) |
| 232 to 234 °C | Nc1cc(=O)oc2ccccc12 |
| 67 °C | O=C(C(=O)c1ccc(Cl)cc1)c1ccccc1 |
| 136 to 138 °C | OCCN1CCNC1=S |
| 99 to 100 °C | CCOC(=O)c1c(-c2ccccc2)csc1NC(=O)CCl |
| 137 to 142 °C | O=C(CO)c1ccc(Br)cc1 |

| melting point | SMILES |
| --- | --- |
| 199 to 201 °C | COc1ccc(NC(N)=S)c(OC)c1 |
| 97 °C | Cc1ccc(C(c2ccc(C)o2)c2cc(Br)ccc2O)o1 |
| 90 to 110 °C | CC(C)(c1ccccc1)C(C)(C)c1ccccc1 |
| 66 °C | CCCC(O)C(O)CO (stereo unspecified) |
| 58 °C | O=Cc1ccc2nonc2c1 |
| 66 to 68 °C | Cc1onc(-c2ccccc2)c1CN |
| 36 to 37 °C | FC(F)(F)c1ccc2nsnc2c1 |
| 261 to 263 °C | COc1cccc(C=Nc2n[nH]c(N=Cc3cccc(OC)c3O)c2Cc2ccc(Cl)cc2)c1O |
| 126 °C | CC(=O)c1ccc(-c2ccc(Br)cc2)cc1 |
| 228 °C | CN1CCN(CCCN2c3ccccc3Sc3ccc(Cl)cc32)CC1 |
| 178 to 179 °C | N#Cc1c(NC(=O)CN2CCOCC2)sc2c1CCCC2 |
| 46 to 50 °C | Cc1cnc(Cl)c([N+](=O)[O-])c1 |
| 225 °C | CC(=O)C1(O)C(O)CC2C3CCC4=CC(=O)CCC4(C)C3CCC21C (stereo unspecified) |
| 200 to 203 °C | NC(=S)NNC(N)=S |
| 200 °C | CC(C)(C)N(NC(=O)c1ccccc1)C(=O)c1ccc(C#N)cc1 |
| 156 °C | CCOC(=O)Nc1ccc2c(c1)N(C(=O)CCN1CCOCC1)c1ccccc1S2 |
| 93 °C | CN(C)c1ccc(/C=C/C(=O)CCc2ccccc2)cc1 |
| 176 °C | CC(=O)Nc1ccc([N+](=O)[O-])c(F)c1 |
| -74 °C | CCOCCOCC |
| 56 °C | N#Cc1ccc(F)c(Br)c1 |
| 132 to 134 °C | Nc1ccc(Oc2ccc([N+](=O)[O-])cc2)cc1 |
| 242 °C | CC1CC2C3CC(F)C4=CC(=O)C=CC4(C)C3(F)C(O)CC2(C)C1C(=O)CO (stereo unspecified) |
| 117 °C | Cc1ncccc1N |
| 200 °C | O=C(O)CN(CC(=O)O)Cc1cc2c(cc1O)Oc1cc(O)c(CN(CC(=O)O)CC(=O)O)cc1C21OC(=O)c2ccccc21 |

| SMILES | melting point |
| --- | --- |
| CC(=O)OC1CC[C@]2(C)[C@H]3CC[C@]4(C)C(=O)CC[C@H]4[C@@H]3C(=O)C[C@@]2(C)C1 (stereo partly specified) | 153 to 157 °C |
| CCCCCCCC(=O)Cl | -63 °C |
| CCCCOP(=O)(O)OCCCC | -13 °C |
| O=P(OCCCl)(OCCCl)OCCCl | -35 °C |
| OCCNC1CCCCC1 | 36 °C |
| C=CCC1(c2ccccc2)C(=O)NC(=O)NC1=O | 156 °C |
| CC(=O)OC1CCC2C3CCC4CC(CC(=O)O)CCC4(C)C3CCC12C (stereo unspecified) | 151 to 153 °C |
| Clc1cccc(O[Si]23OCCN(CCO2)CCO3)c1 | 245 °C |
| O=C(OCCOC(=O)C(Cl)(Cl)Cl)C(Cl)(Cl)Cl | 40 °C |
| S=C=Nc1ccccc1I | 39 °C |
| Nc1c(Cl)c(F)nc(OCC(=O)O)c1Cl | 232 °C |
